Data published in patent US20240350418A1, “LIPID-BASED COMPOSITION FOR ORAL ADMINISTRATION OF BRADYKININ B2-RECEPTOR ANTAGONISTS” (PHARVARIS GMBH, priority 2021, published 2024).

What was measured:
[1] = Single dose pharmacokinetic study in monkeys; assay type: in vivo, Cynomolgus monkeys; settings: after administration, except one animal treated with the Test Formulation
Procedure: The pharmacokinetic properties of a liquid composition according to the invention after a single oral administration in Cynomolgus monkeys was studied and compared with those of a suspension of the same API in an aqueous carrier comprising methylcellulose (1 wt. %). The Test Formulation was based on composition E of Example 1, except that the concentration of the API was 5 mg/mL in essentially the same liquid vehicle as composition E. The Comparative Formulation comprised the same API at a concentration of 2 mg/mL, formulated as an aqueous drug suspension further comprising methylcellulose (1 wt %). […]
The pharmacokinetic parameters were determined from the individual plasma concentrations by non-compartmental analysis, using Kinetica™ 4.4.1 (Thermo Fisher). […]
Maximum plasma concentration (Cmax), sampling time of Cmax (Tmax), and sampling time of the last plasma concentration >LLOQ (Tlast) parameters were determined from the observations. The area under the plasma concentration-time curve from the time of dosing to the last quantifiable concentration was calculated using the linear up/logarithmic down trapezoidal rule (AUClast). At least 3 consecutive quantifiable concentrations had to be available for AUC calculation. […]
The percentage of extrapolated AUC from Tlast to infinity was calculated by Kinetica™ 4.4.1, using the following equation: […]

mouse B2 receptor = molecular target: T1, mouse B2 receptor (Mus musculus, UniProt P32299); assay: In vitro pharmacology testing, antagonist potency; assay type: biochemical
T1 sequence (P32299 1-392): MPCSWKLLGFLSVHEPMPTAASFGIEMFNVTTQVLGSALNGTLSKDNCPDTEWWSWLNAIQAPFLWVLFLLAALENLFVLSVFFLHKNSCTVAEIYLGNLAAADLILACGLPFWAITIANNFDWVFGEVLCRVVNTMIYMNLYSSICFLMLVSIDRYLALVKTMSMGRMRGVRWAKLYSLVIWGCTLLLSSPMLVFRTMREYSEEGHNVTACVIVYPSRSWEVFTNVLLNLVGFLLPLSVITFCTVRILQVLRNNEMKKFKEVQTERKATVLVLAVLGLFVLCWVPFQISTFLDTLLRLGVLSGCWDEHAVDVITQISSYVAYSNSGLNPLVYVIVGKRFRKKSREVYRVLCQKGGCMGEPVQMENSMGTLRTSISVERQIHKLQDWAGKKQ

rat B2 receptor = molecular target: T2, rat B2 receptor (Rattus norvegicus, UniProt P25023); assay: In vitro pharmacology testing, antagonist potency; assay type: biochemical
T2 sequence (P25023 1-396): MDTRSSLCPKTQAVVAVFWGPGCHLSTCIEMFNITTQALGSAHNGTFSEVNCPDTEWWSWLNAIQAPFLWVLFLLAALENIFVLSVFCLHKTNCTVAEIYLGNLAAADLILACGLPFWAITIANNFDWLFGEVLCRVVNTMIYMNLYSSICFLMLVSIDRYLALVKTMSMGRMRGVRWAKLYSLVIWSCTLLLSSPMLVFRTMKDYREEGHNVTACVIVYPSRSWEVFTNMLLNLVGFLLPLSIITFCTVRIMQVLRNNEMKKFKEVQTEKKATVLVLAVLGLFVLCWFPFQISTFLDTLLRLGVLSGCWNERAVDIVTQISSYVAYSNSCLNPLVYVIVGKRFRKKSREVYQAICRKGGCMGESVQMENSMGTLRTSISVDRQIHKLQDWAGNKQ

monkey B2 receptor = assay: In vitro pharmacology testing, antagonist potency; assay type: biochemical
human B2 receptor = molecular target: T3, human B2 receptor (Homo sapiens, UniProt P30411); assay: In vitro pharmacology testing, antagonist potency; assay type: biochemical
T3 sequence (P30411 1-391): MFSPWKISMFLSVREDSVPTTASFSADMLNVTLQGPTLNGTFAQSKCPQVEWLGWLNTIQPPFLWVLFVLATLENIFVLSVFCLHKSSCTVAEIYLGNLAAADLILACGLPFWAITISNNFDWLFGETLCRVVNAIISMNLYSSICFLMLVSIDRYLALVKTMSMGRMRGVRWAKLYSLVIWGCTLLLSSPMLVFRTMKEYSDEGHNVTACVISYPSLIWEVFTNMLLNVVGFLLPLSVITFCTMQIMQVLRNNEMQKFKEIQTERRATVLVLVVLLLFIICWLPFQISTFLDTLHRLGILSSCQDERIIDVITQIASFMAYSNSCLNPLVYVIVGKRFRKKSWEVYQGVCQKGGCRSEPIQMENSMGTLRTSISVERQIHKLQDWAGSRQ

bradykinin B2 receptor = molecular target: T4, bradykinin B2 receptor (Homo sapiens, UniProt P30411); assay: Estimated therapeutic efficacious threshold plasma concentration; assay type: in vivo
T4 sequence (P30411 1-391): T3 sequence (P30411 1-391)

dog B2 receptor = molecular target: T5, dog B2 receptor (Canis lupus familiaris, UniProt Q9BDQ4); assay: In vitro pharmacology testing, antagonist potency; assay type: biochemical
T5 sequence (Q9BDQ4 1-392): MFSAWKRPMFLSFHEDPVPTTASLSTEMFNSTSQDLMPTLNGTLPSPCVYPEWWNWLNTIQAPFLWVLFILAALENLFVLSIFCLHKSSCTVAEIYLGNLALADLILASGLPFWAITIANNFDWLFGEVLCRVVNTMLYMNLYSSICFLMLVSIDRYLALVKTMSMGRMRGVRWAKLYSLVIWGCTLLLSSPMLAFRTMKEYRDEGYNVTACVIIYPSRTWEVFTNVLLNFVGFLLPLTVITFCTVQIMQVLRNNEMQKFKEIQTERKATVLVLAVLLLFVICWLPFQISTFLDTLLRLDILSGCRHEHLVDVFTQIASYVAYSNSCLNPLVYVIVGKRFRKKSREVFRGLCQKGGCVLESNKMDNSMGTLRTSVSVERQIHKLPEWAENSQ

time up to which API plasma concentrations were quantifiable [1]: up to 24 hours
antagonist potency (mouse B2 receptor): low antagonist potency
antagonist potency (rat B2 receptor): low antagonist potency
antagonist potency (monkey B2 receptor): high antagonist potency
antagonist potency (human B2 receptor): high antagonist potency
estimated EC50 (therapeutic efficacious threshold plasma concentration) (bradykinin B2 receptor): 2.4 ng/mL
estimated EC85 (therapeutic efficacious threshold plasma concentration) (bradykinin B2 receptor): 13.8 ng/mL
antagonist potency (dog B2 receptor): low antagonist potency
Structure (SMILES): [2H][C@@](C)(NC(=O)COC(F)F)c1cc(F)cc(Cl)c1COc1cccc2c(-c3ncnn3C)cc(C)nc12 [API, (S)-N-(1-deutero-1-(3-chloro-5-fluoro-2-((2-methyl-4-(1-methyl-1H-1,2,4-triazol-5-yl)quinolin-8-yloxy)methyl)phenyl)ethyl)-2-(difluoromethoxy)acetamide monohydrate]
